How the values were obtained:
[1] = test system: A549 cells; experiment: Protein uptake in A549 cells, Cy5-labeled BSA; assay type: cell-based, human; conditions: PFNA
Method: FIGS. 18A-18B depict the uptake of Cy5-labeled BSA in human lung A549 cells after 2 and 24 hours of incubation in the absence/presence of PFNA. Results are shown in relative fluorescence units (RFU).
(§1) Multiplexed in vitro assays were employed to probe the influence of PFNA interactions on protein uptake and transport in cells. A549 and PC9 human lung cells were prioritized for these assays given that pulmonary tissue is a primary site of perfluoroalkyl bioaccumulation in humans (Reference: 63). Before initiating experiments, cellular toxicity assays established a maximum tolerated dose of PFNA to avoid confounding protein transport experiments with substantive cell death. Protein uptake was then studied using green fluorescent protein (GFP) and bovine serum albumin (BSACy5) as model biologics that employ non-specific pinocytic mechanisms for cellular entry.

[2] = test system: seven model proteins (Hb, GFP, BSA, β-Gal, IgG, TFN, URE); experiment: Fluorochemical-mediated dispersion of test proteins into perfluorohexane; assay type: physicochemical; conditions: PFNA-mediated, protein hydrodynamic radius 3.5 nm
From the text: Only the rabbit IgG Fc fragment is shown.
For PFAS amphiphiles, the combination of polar head group and fluorophilic tail additionally leads to their preferential assembly at water-fluorous interfaces. Based on these unique properties, it was speculated that PFAS compounds may noncovalently associate with proteins to mediate their phase separation into fluorous media. To test this, a screening assay was developed to qualitatively investigate the binding affinity of a library of perfluorinated chemicals with seven model proteins, which include human hemoglobin (Hb), green fluorescent protein (GFP), bovine serum albumin (BSA), (β-Galactosidase (β-Gal), rabbit serum immunoglobulin (IgG), bovine apo-transferrin (TFN), and urease (URE). This group of model proteins captures an array of physicochemical properties ranging in molecular weight, solvent accessible surface area (SASA), isoelectric point (pI), and hydrodynamic radii. A corresponding perfluorinated small molecule test set was selected to contain a plurality of functional groups, linear perfluorocarbon chain lengths, and cyclic or aromatic geometries (FIGS. 1-7). Selection of these compounds was based on their potential to form noncovalent bonds (i.e., hydrogen or ionic) with the solvent exposed protein surfaces. […] These three linear PFAS chemicals are currently regulated by the US Environmental Protection Agency based on their reproductive, immune, and hepatic toxicity (References: 44-46). In sum, the structural and biochemical diversity represented in the protein and fluorochemical libraries was rationally selected to allow structure-function-performance relationships to be ascertained from binding studies.

[3] = molecular target: transferrin (Bos taurus, UniProt Q29443); experiment: Circular dichroism with PFNA, transferrin; parameters: species or system bovine
From the text: FIGS. 14A-14L depict circular dichroism spectra of Hb (FIG. 14A), GFP (FIG. 14B), BSA (FIG. 14C), β-Gal (FIG. 14D), rabbit serum IgG (FIG. 14E), transferrin (FIG. 14F), and urease (FIG. 14G) in the absence (black line) or presence (dashed lines) of PFNA. Increasing dash sequence indicated higher concentration of PFNA. FIG. 14H: Change in molar ellipticity at 216 nm (Δθ216) of PFNA-treated proteins, relative to native controls, as a function of increasing ligand concentration. FIG. 14I: Percentage change in secondary structural motifs of Hb, β-Gal and IgG between the native protein and 1 mM PFNA treated samples. β-sheet structures were further differentiated into parallel and antiparallel conformations. Hb, β-Gal and IgG were prioritized for analysis based on their significant spectral shift in the presence of 1 mM PFNA. FIGS. 14J-14L: Sensograms for BSA (FIG. 14J), β-gal (FIG. 14K), and IgG (FIG. 14L) showing relative response (R.U.) at 10, 25, 50, 75, and 100 μM.
To explore PFNA-mediated changes in protein structure, dose-response circular dichroism (CD) studies were performed (FIG. 14A-14G). […] Remarkably, these structural changes endured even at sub-stoichiometric PFNA:protein ratios (see 0.001 mM PFNA in […]; protein concentration was constant at 0.01 mM).

[4] = test system: cells; experiment: Cellular uptake of PFNA-complexed proteins; assay type: cell-based
From the text: as §1

[5] = molecular target: BSA (Bos taurus, UniProt P02769); experiment: 1H and 19F NMR of dispersant:BSA complex; assay type: binding, bovine
Method: FIG. 43 depicts a superimposed ^1H NMR spectra of PD-7 (60 mM) and PD-7:BSA (1000:1 molar ratio) complex.
FIG. 44 depicts a superimposed ^1H NMR spectra of PD-2 (60 mM) and PD-2:BSA (1000:1 molar ratio) complex.
FIG. 45 depicts the change in ^1H (—COOH) and ^19F (—CF3) NMR chemical shift (Δδ) for PD-2 (grey) and PD-7 (black) following coordination with the BSA protein.
1H NMR and 19F NMR spectroscopy were employed to examine the biophysical interactions between BSA and PD-7 in the fluorous solvent. 60 mM PFNA solution in PFOc was aliquoted into lyophilized BSA stocks to achieve 1000:1 PFNA/BSA molar ratio then transferred to thin wall precision tube with Norell Coaxial inserts containing D2O as locking solvent. NMR spectra were collected on a Bruker NEO-400, equipped with a double resonance broadband observe iProbe (capable of automatic tuning and matching) for 1H and 19F nuclei observation. […] This is a 7-fold change in chemical shift relative to PD-7:BSA (FIG. 45).

[6] = Pharmacokinetics of β-Gal in C57BL/6J mice (Example 3); assay type: in vivo; conditions: i.v. tail vein
Method: Two groups (n=5) of C57BL/6J mice received […] of 10 μM solutions of β-Gal that was either 1) prepared in sterile PBS or 2) dissolved in PFOc (1 mM PFNA) and extracted into sterile PBS. Due to the large solution volumes given (150 μL, ~15% of mouse blood volume), PFOc dispersed proteins were extracted into sterile saline before injection to avoid hyponatremia. Samples were administered by tail vein injection.
At a series of time points, mice were sacrificed, and blood samples collected via cardiac puncture. Bioactivity and bioavailability of β-Gal was determined by conversion of the fluorescent substrate, 4-Methylumbelliferyl-[…] (β-GAL). Whole blood collected in a serum tube was centrifuged at 2000 rcf for 4 minutes to extract serum containing β-Gal protein. 20 μL of the serum was then mixed with 180 μL μ-GAL (for a final substrate concentration of 1 μM). Samples were quickly pipette mixed and incubated in the dark at room temperature for 5 minutes. Fluorescent intensity was measured with λex=360 nm and λem=440 nm. The background fluorescent intensity from serum was determined from serum dilution in PBS without μ-GAL substrate.

[7] = presence of BSA, 1000:1 molar ratio, in PFOc

Sequence of BSA (P02769 25-607): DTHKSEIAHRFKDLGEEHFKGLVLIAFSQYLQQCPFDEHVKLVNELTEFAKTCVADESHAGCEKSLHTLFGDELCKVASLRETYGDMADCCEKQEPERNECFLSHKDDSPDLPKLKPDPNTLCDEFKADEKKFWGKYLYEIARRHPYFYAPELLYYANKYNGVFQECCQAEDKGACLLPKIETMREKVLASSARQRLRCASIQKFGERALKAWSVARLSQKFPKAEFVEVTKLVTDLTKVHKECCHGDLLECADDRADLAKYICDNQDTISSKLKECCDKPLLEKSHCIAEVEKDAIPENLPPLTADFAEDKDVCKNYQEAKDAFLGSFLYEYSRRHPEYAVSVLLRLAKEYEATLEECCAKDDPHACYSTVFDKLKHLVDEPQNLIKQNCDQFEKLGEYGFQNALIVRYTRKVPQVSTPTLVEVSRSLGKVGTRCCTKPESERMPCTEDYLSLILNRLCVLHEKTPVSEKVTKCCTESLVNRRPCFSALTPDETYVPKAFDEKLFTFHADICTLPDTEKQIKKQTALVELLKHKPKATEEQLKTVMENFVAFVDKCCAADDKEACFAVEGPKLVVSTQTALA
Sequence of transferrin (Q29443 20-704): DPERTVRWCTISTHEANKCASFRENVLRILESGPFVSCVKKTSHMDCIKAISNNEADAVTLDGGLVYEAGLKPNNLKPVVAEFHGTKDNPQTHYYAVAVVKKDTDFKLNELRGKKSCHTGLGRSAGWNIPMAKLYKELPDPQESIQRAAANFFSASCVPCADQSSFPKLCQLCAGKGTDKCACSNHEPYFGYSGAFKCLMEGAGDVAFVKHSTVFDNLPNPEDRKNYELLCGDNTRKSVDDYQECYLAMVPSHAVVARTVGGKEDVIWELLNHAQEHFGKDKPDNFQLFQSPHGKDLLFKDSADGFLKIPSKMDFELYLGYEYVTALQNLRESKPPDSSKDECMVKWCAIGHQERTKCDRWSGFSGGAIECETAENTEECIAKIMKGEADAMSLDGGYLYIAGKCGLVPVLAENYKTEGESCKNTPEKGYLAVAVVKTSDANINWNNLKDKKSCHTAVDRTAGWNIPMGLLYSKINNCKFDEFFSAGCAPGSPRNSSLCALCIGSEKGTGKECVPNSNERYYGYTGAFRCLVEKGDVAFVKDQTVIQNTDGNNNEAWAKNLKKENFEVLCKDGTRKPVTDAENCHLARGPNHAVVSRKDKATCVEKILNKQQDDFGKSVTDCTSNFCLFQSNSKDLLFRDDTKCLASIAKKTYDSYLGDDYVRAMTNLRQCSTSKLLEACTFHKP

Question: For `O=C(O)C(F)(F)C(F)(F)C(F)(F)C(F)(F)C(F)(F)C(F)(F)C(F)(F)C(F)(F)F` [Compound 7, perfluoronanonic acid], which BSA internalization [1] is on record?
Answer: less affected

Question: And the protein dispersion [2]?
Answer: 60%

Question: And the “CD structural profile, transferrin” value [3]?
Answer: remained largely unchanged

Question: And the “cellular uptake of complexed proteins” value [4]?
Answer: significantly enhanced

Question: And the “change in chemical shift relative to PD-7:BSA” value ([5]; 1H —COOH, PD-2 vs PD-7)?
Answer: 7 fold

Question: What about the “change in chemical shift of CF3 (Δδ, 19F NMR)” value [5, 7] of the same compound?
Answer: 0.006 ppm

Question: And the “downfield shift of —COOH hydrogen (1H NMR)” value [5, 7]?
Answer: 0.56 ppm

Question: With “β-Gal: β-Galactosidase (β-Gal), dissolved in PBS/saline or dispersed in PFOc” as the compound, how does the “serum half-life t1/2” value ([6]; native β-Gal administered in saline) read?
Answer: 6.6 min

Question: What about the “serum half-life t1/2” value ([6]; β-Gal delivered from PFOc dispersion (1 mM PFNA), extracted into saline) of the same compound?
Answer: 7.9 min

Reference: patent US20260365692A1, “COMPOSITIONS COMPRISING PROTEINS DISSOLVED IN FLUORINATED SOLVENTS, AND METHODS OF MAKING AND USING THE SAME” (priority 2022, published 2026)
